Consider 1 molecule from patent publication US20200155481A1, “INTRAMUSCULAR ATOVAQUONE FOR MALARIA PROPHYLAXIS” (THE JOHNS HOPKINS UNIVERSITY, priority 2017, published 2020).

What is called half-life is how long it takes for the measured level to halve. Higher therefore signals slow decline.

Series [1] concerns P. berghei ANKA sporozoites. The experiment in a line: murine Plasmodium berghei sporozoite challenge model (prophylaxis efficacy). In kind it is in vivo. To be noted: intramuscular, dose-dependent; mice; FIG. 2. The protocol:
Four- to six-day old Anopheles stephensi adult mosquitoes fasted for 6 h were fed on Swiss Webster mice infected with P. berghei (ANKA 2.34 strain). Fed mosquitoes were maintained for 18 d (19° C., 80% relative humidity), when salivary glands were harvested into RPMI medium and disrupted by several passages through a 0.5 in 28-gauge needle to release sporozoites. Parasites were counted by hemocytometer and diluted to 25,000 mL^−1 RPMI. C57BL6 mice were challenged by intravenous infusion of 5,000 sporozoites in 200 μL RPMI.
(§1) All dosing materials were constituted just before use. Mepron suspension (150 mg/mL atovaquone) was the starting material. Pluronic F-68 (10%) was used to dilute Mepron to required dosing concentration (≤100 mg/mL), or as vehicle control. For the washed drug preparation, atovaquone was pelleted from diluted Mepron (50 mg/mL, 13,000×g, 10 min) and the supernatant was replaced with equal volume 0.9% NaCl. Washing was repeated three times prior to final resuspension of excipient-depleted atovaquone at 50 mg/mL in 0.9% NaCl for dosing. C57BL6 male mice (˜20 g; 3-5 per group) were injected intramuscularly (biceps femoris; 23-gauge needle, 100 μl Hamilton syringe) with diluted or washed Mepron (40 μl total volume, 20 μl per limb). Oral Mepron was administered by gavage. […]

Series [2] is described as follows: in vivo. On the set-up: species or system mice. The following applies: male, C57BL6, mouse, im, 200 mg/kg. The protocol:
as §1, with “gavage. At predetermined post-dose intervals, animals were challenged with P. berghei ANKA by infusion of 5,000 sporozoites into a tail vein. Starting 4 d post-challenge then weekly thereafter for 42 d, tail snip blood samples were examined for parasites via Giemsa-stained thin smears. Each experiment included an untreated cohort to validate the challenge. Efficacy outcomes were binary. The appearance of parasitemia in any animal in a cohort was designated a dosing failure.” for “gavage.”

For series [3] the following is noted: cited from earlier work.

The structures appear in SMILES notation.

As for `O=C1C(O)=C([C@H]2CC[C@H](c3ccc(Cl)cc3)CC2)C(=O)c2ccccc21` [atovaquone], in series [1], the “successful malaria prophylaxis (parasite-free), days post-challenge” value is reported as “up to 42 days”. This molecule also had a half-life in series [2] of 182 h. In addition, the solubility in water entry in series [3] is given as “practically insoluble”.
